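Growth conditions: 96-well plates. Treatment: test compound, 48 hours, 5 concentrations. Analysis: linear interpolation between bracketing concentrations; unreached endpoints set to highest concentration. TGI denotes the concentration required for complete inhibition of growth.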
Tests used:
Test in all cases: NCI tumour cell line growth inhibition, 48 h
[1] = test system: 786-0 renal
[2] = test system: A498 renal
[3] = test system: A549 NSCLC
[4] = test system: ACHN renal
[5] = test system: CAKI-1 renal
[6] = test system: CCRF-CEM leukemia
[7] = test system: COLO 205 colon
[8] = test system: DLD-1 colon
[9] = test system: DMS 114 small cell lung
[10] = test system: DMS 273 small cell lung
[11] = test system: EKVX NSCLC
[12] = test system: HCC-2998 colon
[13] = test system: HCT-116 colon
[14] = test system: HCT-15 colon
[15] = test system: HL-60(TB) leukemia
[16] = test system: HOP-18 NSCLC
[17] = test system: HOP-62 NSCLC
[18] = test system: HOP-92 NSCLC
[19] = test system: HT29 colon
[20] = test system: IGROV1 ovarian
[21] = test system: K-562 leukemia
[22] = test system: KM12 colon
[23] = test system: KM20L2 colon
[24] = test system: LOX IMVI melanoma
[25] = test system: LXFL 529 NSCLC
[26] = test system: M14 melanoma
[27] = test system: M19-MEL melanoma
[28] = test system: MALME-3M melanoma
[29] = test system: MOLT-4 leukemia
[30] = test system: NCI-H23 lung
[31] = test system: NCI-H460 lung
[32] = test system: OVCAR-3 ovarian
[33] = test system: OVCAR-4 ovarian
[34] = test system: OVCAR-5 ovarian
[35] = test system: OVCAR-8 ovarian
[36] = test system: RPMI-8226 leukemia
[37] = test system: SF-268 CNS
[38] = test system: SF-295 CNS
[39] = test system: SF-539 CNS
[40] = test system: SK-MEL-2 melanoma
[41] = test system: SK-MEL-28 melanoma
[42] = test system: SK-MEL-5 melanoma
[43] = test system: SK-OV-3 ovarian
[44] = test system: SNB-19 CNS
[45] = test system: SNB-75 CNS
[46] = test system: SW-620 colon
[47] = test system: TK-10 renal
[48] = test system: U251 CNS
[49] = test system: UACC-257 melanoma
[50] = test system: UACC-62 melanoma
[51] = test system: XF 498 CNS
[52] = test system: NCI-H226 lung
[53] = test system: SN12C renal
[54] = test system: SNB-78 CNS
[55] = test system: SR leukemia
[56] = test system: UO-31 renal
[57] = test system: NCI-H522 lung
[58] = test system: RXF 393 renal
[59] = test system: RXF-631 renal

Structure (SMILES): O=C1Nc2ccccc2C12CCNC2Cc1ccccc1 (stereo not drawn)
- TGI [1]: > 100 µM
- TGI [2]: > 100 µM
- TGI [3]: > 100 µM
- TGI [4]: > 100 µM
- TGI [5]: > 100 µM
- TGI [6]: > 100 µM
- TGI [7]: > 100 µM
- TGI [8]: > 100 µM
- TGI [9]: > 100 µM
- TGI [10]: > 100 µM
- TGI [11]: > 100 µM
- TGI [12]: > 100 µM
- TGI [13]: > 100 µM
- TGI [14]: > 100 µM
- TGI [15]: > 100 µM
- TGI [16]: > 100 µM
- TGI [17]: > 100 µM
- TGI [18]: > 100 µM
- TGI [19]: > 100 µM
- TGI [20]: > 100 µM
- TGI [21]: > 100 µM
- TGI [22]: > 100 µM
- TGI [23]: > 100 µM
- TGI [24]: > 100 µM
- TGI [25]: > 100 µM
- TGI [26]: > 100 µM
- TGI [27]: > 100 µM
- TGI [28]: > 100 µM
- TGI [29]: > 100 µM
- TGI [30]: > 100 µM
- TGI [31]: > 100 µM
- TGI [32]: > 100 µM
- TGI [33]: > 100 µM
- TGI [34]: > 100 µM
- TGI [35]: > 100 µM
- TGI [36]: > 100 µM
- TGI [37]: > 100 µM
- TGI [38]: > 100 µM
- TGI [39]: > 100 µM
- TGI [40]: > 100 µM
- TGI [41]: > 100 µM
- TGI [42]: > 100 µM
- TGI [43]: > 100 µM
- TGI [44]: > 100 µM
- TGI [45]: > 100 µM
- TGI [46]: > 100 µM
- TGI [47]: > 100 µM
- TGI [48]: > 100 µM
- TGI [49]: > 100 µM
- TGI [50]: > 100 µM
- TGI [51]: > 100 µM

Structure (SMILES): CCCCCC[N+](C)(C)Cc1ccc(C[N+](C)(C)CCCCCC)cc1
- TGI [1]: 18.1 µM
- TGI [2]: 38.9 µM
- TGI [3]: 12.8 µM
- TGI [4]: 24.8 µM
- TGI [5]: 14.6 µM
- TGI [8]: 26.5 µM
- TGI [10]: 3.73 µM
- TGI [11]: 27.7 µM
- TGI [12]: 27.9 µM
- TGI [13]: 12.8 µM
- TGI [14]: 23.7 µM
- TGI [16]: 21.8 µM
- TGI [17]: 8.23 µM
- TGI [18]: 7.17 µM
- TGI [19]: 16 µM
- TGI [20]: 5.38 µM
- TGI [21]: 5.65 µM
- TGI [23]: 34.4 µM
- TGI [25]: 15.4 µM
- TGI [26]: 9.34 µM
- TGI [28]: 97.8 µM
- TGI [52]: 20.4 µM
- TGI [31]: 6.03 µM
- TGI [32]: 14.4 µM
- TGI [33]: > 100 µM
- TGI [34]: 24.7 µM
- TGI [35]: 7.37 µM
- TGI [36]: 9.96 µM
- TGI [37]: > 100 µM
- TGI [38]: 10.5 µM
- TGI [40]: 5.15 µM
- TGI [41]: 23.6 µM
- TGI [42]: 28.5 µM
- TGI [43]: 33.4 µM
- TGI [53]: 12.7 µM
- TGI [44]: 67.4 µM
- TGI [45]: 10.8 µM
- TGI [54]: 5.15 µM
- TGI [55]: 5.08 µM
- TGI [46]: 26.6 µM
- TGI [47]: 24.3 µM
- TGI [48]: 7.28 µM
- TGI [49]: 35.5 µM
- TGI [50]: 29.7 µM
- TGI [56]: 29.8 µM

Structure (SMILES): COc1ccc(Nc2nc3ccc(C(F)(F)F)cc3nc2-c2ccccc2)cc1OC
- TGI [1]: 72.7 µM
- TGI [2]: > 100 µM
- TGI [3]: > 100 µM
- TGI [4]: > 100 µM
- TGI [5]: 86.1 µM
- TGI [6]: > 100 µM
- TGI [7]: 91.2 µM
- TGI [8]: > 100 µM
- TGI [9]: > 100 µM
- TGI [10]: > 100 µM
- TGI [11]: 80.3 µM
- TGI [12]: 41.3 µM
- TGI [13]: > 100 µM
- TGI [14]: > 100 µM
- TGI [15]: > 100 µM
- TGI [17]: > 100 µM
- TGI [18]: 36.9 µM
- TGI [19]: 22.6 µM
- TGI [20]: > 100 µM
- TGI [21]: > 100 µM
- TGI [22]: > 100 µM
- TGI [24]: 31.6 µM
- TGI [25]: > 100 µM
- TGI [26]: > 100 µM
- TGI [28]: > 100 µM
- TGI [29]: > 100 µM
- TGI [52]: > 100 µM
- TGI [30]: > 100 µM
- TGI [31]: 37.1 µM
- TGI [57]: 75.3 µM
- TGI [32]: > 100 µM
- TGI [33]: > 100 µM
- TGI [34]: > 100 µM
- TGI [35]: > 100 µM
- TGI [58]: 83.6 µM
- TGI [59]: > 100 µM
- TGI [37]: > 100 µM
- TGI [38]: 44.9 µM
- TGI [39]: > 100 µM
- TGI [40]: > 100 µM
- TGI [41]: > 100 µM
- TGI [42]: > 100 µM
- TGI [43]: > 100 µM
- TGI [53]: > 100 µM
- TGI [45]: > 100 µM
- TGI [55]: > 100 µM
- TGI [46]: > 100 µM
- TGI [48]: > 100 µM
- TGI [49]: > 100 µM
- TGI [50]: > 100 µM
- TGI [56]: 72.9 µM
- TGI [51]: 85 µM

Structure (SMILES): Clc1ccc(SC(/C=C/NNC2=NC(c3ccccc3)C(c3ccccc3)=NN2)c2ccccc2)cc1 (stereo not drawn)
- TGI [1]: > 100 µM
- TGI [2]: > 100 µM
- TGI [3]: > 100 µM
- TGI [4]: > 100 µM
- TGI [5]: 54.1 µM
- TGI [6]: 73.1 µM
- TGI [7]: 45.6 µM
- TGI [8]: > 100 µM
- TGI [9]: 75.6 µM
- TGI [10]: > 100 µM
- TGI [11]: > 100 µM
- TGI [12]: 44.3 µM
- TGI [13]: 92 µM
- TGI [14]: > 100 µM
- TGI [15]: 41.9 µM
- TGI [17]: > 100 µM
- TGI [18]: 32.6 µM
- TGI [19]: 39.3 µM
- TGI [20]: > 100 µM
- TGI [21]: 53.1 µM
- TGI [22]: 67.2 µM
- TGI [23]: 53.7 µM
- TGI [24]: 65.7 µM
- TGI [26]: 46 µM
- TGI [27]: 99.4 µM
- TGI [28]: 39.8 µM
- TGI [29]: 38.4 µM
- TGI [52]: 62.7 µM
- TGI [30]: 61.6 µM
- TGI [31]: > 100 µM
- TGI [57]: 73.7 µM
- TGI [32]: 60.5 µM
- TGI [33]: 68.2 µM
- TGI [34]: > 100 µM
- TGI [35]: > 100 µM
- TGI [36]: 30.3 µM
- TGI [59]: > 100 µM
- TGI [37]: 78.1 µM
- TGI [38]: 89.6 µM
- TGI [39]: > 100 µM
- TGI [40]: 40.7 µM
- TGI [41]: 69.2 µM
- TGI [42]: 31.2 µM
- TGI [43]: > 100 µM
- TGI [53]: > 100 µM
- TGI [44]: > 100 µM
- TGI [45]: 64.7 µM
- TGI [54]: > 100 µM
- TGI [46]: > 100 µM
- TGI [47]: > 100 µM
- TGI [48]: > 100 µM
- TGI [49]: 55.2 µM
- TGI [50]: 85.3 µM
- TGI [56]: 38.8 µM
- TGI [51]: 54.6 µM

From PubChem BioAssay (NCI)
